Reference: patent US10772846B2, “Methods and compositions for treating and preventing arthritis” (Montefiore Medical Center, priority 2014, dated 2020)

Legend:
[1] = tested on: DMM mice (C57BL/6); test: Slowing progression of OA in DMM post-traumatic OA mouse model (Safranin O staining, OARSI score); assay type: in vivo; conditions: for cartilage damage (fibrillation, erosion, loss of aggrecans) by Safranin O staining: oral daily for 8 weeks; for mean OARSI score ± standard deviation: oral gavage daily for 8 weeks, Carvacrol 50 mg/kg, Curcumin 50 mg/kg, EGCG 5 mg/kg, OPC 50 mg/kg or combination, score 0 healthy to 6 severe erosion, 8 animals/group
Description: Induction of osteoarthritis in mice. All studies were approved by the Albert Einstein College of Medicine Institutional Animal Care and Use Committee. Destabilization of the medial meniscus (DMM) was established in adult C57BL/6 mice (male, 5-6 months) by surgically transecting the medial meniscotibial ligament (MMTL) in the right hind limb (36). Briefly, the joint capsule immediately medial to the patellar tendon was incised, followed by blunt dissection of the fat pad, to provide visualization of the MMTL of the medial meniscus. The MMTL was transected, leading to DMM. In the sham surgery, the MMTL was visualized but not transected. The joint capsule and skin were closed with suture.
Animals were euthanized, hindlimbs were fixed in formalin, decalcified in formic acid, embedded in paraffin and sectioned for histology and immunohistochemistry. Sections were incubated overnight at 4° C. with antibodies against cleaved aggrecan (NITEGE, Ibex) and cleaved type II collagen (Col2-3/4M, Ibex), MMP-13 (Abcam), and ADAMTS5 (Abcam) followed by incubation with anti-mouse or anti-rabbit secondary antibody (Biocare Medical) and visualization with DAB chromagen (Vector Laboratories). Negative controls were stained with irrelevant isotype-matched antibodies (Biocare Medical). Safranin O-fast green staining was used to visualize proteoglycans in the articular cartilage. Severity of OA was evaluated for each mouse using the Osteoarthritis Research Society International (OARSI) scoring system (34) Immunostaining intensity for type II collagen or aggrecan cleavage epitopes was quantified by determining the “reciprocal intensity” of the stained articular cartilage matrix. Briefly, the light intensity value of random locations within azones from the posterior to anterior direction of the femoral and tibial condyles was measured using the color picker in Adobe Photoshop (37). Percentages of positive MMP-13 and ADAMTS5 chondrocytes were determined by counting the number of immunostained cells and dividing by the total number of chondrocytes visualized by a hematoxylin counterstain (Vector Laboratories).
To determine the efficacy of the C′-CEO formulation in slowing progression of OA in vivo, a well-established post-traumatic mouse model of OA was used. These OA mice were orally administered C′-CEO, individual compounds, or placebo daily. Severity of OA was evaluated 8 weeks after induction of OA, using a well-established and FDA recommended cartilage integrity stain, Safranin O, and a semi-quantitative Osteoarthritis Research Society International (OARSI) scoring system. Furthermore, the efficacy of the C′-CEO formulation was validated by examining the level of breakdown of two major cartilage matrix proteins, type II collagen and aggrecan, as cartilage degradation is a hallmark of OA. It was further examined how the C′-CEO formulation may have such effect by targeting CITED2 by examining CITED2 expression in the articular cartilage of these OA mice.
All studies were approved by the Albert Einstein College of Medicine Institutional Animal Care and Use Committee. Destabilization of the medial meniscus (DMM) was established in adult C57BL/6 mice (male, 5-6 months) by surgically transecting the medial meniscotibial ligament (MMTL) in the right hind limb Immediately after surgery, mice were administered either carvacrol (C′), curcumin (C), EGCG (E), OPC(O), C′-CEO, or vehicle control for 8 weeks. At 8 weeks following surgery, animals were euthanized, the hindlimbs were fixed in formalin, decalcified in formic acid, embedded in paraffin and sectioned for histology. Safranin O, a well-stablished cartilage stain, was used to visualize integrity of the articular cartilage and aggrecans in the articular cartilage. Severity of OA was evaluated using the OARSI scoring system.

[2] = tested on: DMM mice (C57BL/6); test: Tactile sensitivity testing (von Frey) in DMM OA mice; assay type: in vivo; conditions: oral administration, 8 weeks, summary over von Frey and open field tests
Description: Mice were acclimated for 30 minutes in individual chambers on top of a wire grid platform prior to von Frey testing. The plantar surface of the hind paw was stimulated with ascending force intensities of von Frey filaments (Stoelting) to determine tactile sensitivity. A positive response was defined as a rapid withdrawal of the hind paw when the stimulus was applied, and the number of positive responses for each stimulus was recorded. Tactile threshold was defined as a withdrawal response in 5 out of 10 trials to a given stimulus intensity (38). This threshold was calculated once per animal.
To determine pain relief, three animal behavior assessments were used: 1) von Frey, which determined sensitivity to mechanical stimuli [OA animals tend to have lower thresholds of pain to mechanical stimuli]; 2) distance traveled—a measure of joint movement [OA animals tend to move a lesser distance compared to non-OA animals]; 3) rearing—a measure of joint function [OA animals tend to rear, or stand up on their hind limbs less than non-OA animals].

Molecule | cartilage damage (fibrillation, erosion, loss of aggrecans) by Safranin O staining [1] | mean OARSI score ± standard deviation [1] | pain relief of OA-associated pain (overall: mechanical sensitivity, joint movement and function) [2]
COc1cc(/C=C/C(=O)CC(=O)/C=C/c2ccc(O)c(OC)c2)ccc1O [Curcumin] | some reduction in cartilage degradation | 2.4 ± 0.42 | did not result in a statistical improvement in pain relief
Epigallocatechin-3-gallate [EGCG] | some reduction in cartilage degradation | 2.1 ± 0.29 | did not result in a statistical improvement in pain relief
Cc1ccc(C(C)C)cc1O [Carvacrol] | some reduction in cartilage degradation | 2.9 ± 0.45 | did not result in a statistical improvement in pain relief
